The subject of data set [1] is HBV viral production in AD38 cells. Briefly: Viral load production in AD38 cells by quantitative PCR of the HBV core sequence in supernatant. The class given is cell-based. As to conditions: Hepatitis B virus, 144 h; 10 μM compound, 6 days at 37° C., viral load in supernatant compared against DMSO control wells; read-out: AD38 Viral Load (CpAM/DMSO %) at 10 μM. Put shortly: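 Read-out is TaqMan qPCR of the HBV core region in supernatant, quantitated against standards and referenced to DMSO controls (≥3 per plate). Cells: AD38 at 50,000/well, exposed to compound (added as 10× stock in 10% DMSO) for 6 days at 37° C.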

A further data set has as its system AD38 cells. Briefly: Viability of AD38 cells (Promega CellTiter-Glo) at the end of compound treatment. In kind it is cell-based. The settings on record: 10 μM compound, 6 days, luminescence normalized against DMSO control wells (controls being 100%). In a few lines: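 Luminescent CellTiter-Glo read-out, taken after supernatant was swapped for tetracycline-free 2% FBS medium with 1% DMSO, gave percent viability relative to DMSO controls set at 100%. Cells were plated at 50,000/well and exposed to compound, added as a 10× stock in 10% DMSO, for 6 days at 37° C.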
(Cellular ATP, detected with luciferase, serves as a proxy for viable cell number.)

For `O=C(NCc1cccnc1)c1ccc2c(c1)NC(=O)c1cccc(F)c1S2` [Compound 1392], the activity at 10 µM in data set [1] was found to be 2%. In addition, the “AD38 Viability Normalized Result (CPAM/DMSO %) at 10 μM” value in the data set on AD38 cells turned out to be 85%.
Turning to `Cc1ncsc1CNC(=O)c1ccc2c(c1)NC(=O)c1ccccc1S2` [Compound 1600], in data set [1], the activity at 10 µM stood at 12%. The “AD38 Viability Normalized Result (CPAM/DMSO %) at 10 μM” value in the data set on AD38 cells amounted to 108%.
The like results for `O=C(Nc1cccnc1)c1ccc2c(c1)NC(=O)c1ccccc1S2` [Compound 1231] were, in that order, 12% and 93%.
As for `O=C(NCc1cccnc1)c1ccc2c(c1)NC(=O)c1ccccc1O2` [Compound 1594], the activity at 10 µM in data set [1] was 4%. In the data set with AD38 cells, the “AD38 Viability Normalized Result (CPAM/DMSO %) at 10 μM” value stood at 109%.
For `O=C(NCCc1cncs1)c1cc2c(cc1F)Sc1ccccc1C(=O)N2` [Compound 1558], in that order: 51% and 88%.
For `Cl.O=C(NCC1CCNC1)c1ccc2c(c1)NC(=O)c1ccccc1S2` (centres unmarked) [Compound 1608, 11-oxo-N-(pyrrolidin-3-ylmethyl)-10, 11-dihydrodibenz[b,f] [1,4] thiazepine-8-carboxamide hydrochloride], in that order: 63% and 103%.
The like results for `O=C(NCCC1CCCCC1)c1ccc2c(c1)NC(=O)c1cnccc1S2` [Compound 1257] were, in that order, 26% and 113%.
Turning to `O=C(NCCc1cccc(C(F)(F)F)c1)c1ccc2c(c1)NC(=O)c1ccccc1S2` [Compound 1195], the activity at 10 µM in data set [1] stood at 0%. Besides, the “AD38 Viability Normalized Result (CPAM/DMSO %) at 10 μM” value in the data set on AD38 cells is 48%.
The like results for `O=C(Nc1ccccc1)c1ccc2c(c1)NC(=O)c1cc(F)ccc1S2` [Compound 1319] were, in that order, 16% and 83%.
The like results for `O=C(NCc1cnco1)c1ccc2c(c1)NC(=O)c1ccccc1N2Cc1ccccc1` [Compound 1492] were, in that order, 39% and 79%.
For `NC(=O)c1ccc2c(c1)Sc1ccc(C(=O)NCCC3CCCCC3)cc1NC2=O` [Compound 1276], in that order: 24% and 89%.
For `O=C(NCCc1nnc[nH]1)c1ccc2c(c1)NC(=O)c1ccccc1S2` [Compound 1551], the activity at 10 µM in data set [1] was determined as 51%. Further, in the data set with AD38 cells, the “AD38 Viability Normalized Result (CPAM/DMSO %) at 10 μM” value was 91%.
For the compound `O=C(NCc1ccc(-c2cncnc2)cc1)c1ccc2c(c1)NC(=O)c1cc(F)ccc1S2` [Compound 1314], the activity at 10 µM in data set [1] turned out to be 69%. The “AD38 Viability Normalized Result (CPAM/DMSO %) at 10 μM” value with AD38 cells is on record as 101%.
For `O=C(NCC(c1ccccc1)N1CCCC1)c1ccc2c(c1)NC(=O)c1ccccc1S2` (centres unmarked) [Compound 1251], in that order: 8% and 99%.
For `CN1C(=O)c2ccccc2Sc2ccc(C(=O)NCc3cccnc3)cc21` [Compound 1553], in that order: 86% and 93%.
The like results for `O=C(Nc1ncco1)c1ccc2c(c1)NC(=O)c1cc(F)ccc1S2` [Compound 1353] were, in that order, 50% and 97%.
Consider `O=C1Nc2cc(S(=O)(=O)Nc3cncnc3)ccc2Sc2ccccc21` [Compound 1505], for which, in data set [1], the activity at 10 µM was 81%. In addition, the “AD38 Viability Normalized Result (CPAM/DMSO %) at 10 μM” value in the data set on AD38 cells is listed as 85%.
The like results for `O=C(NCc1cnc(-c2ccccc2)nc1)c1ccc2c(c1)NC(=O)c1ccccc1S2(=O)=O` [Compound 1635] were, in that order, 1% and 93%.
For `O=C(Nc1ccc2ncoc2c1)c1ccc2c(c1)NC(=O)c1cc(F)ccc1S2` [Compound 1331], in that order: 43% and 88%.

The values are drawn from patent US10183936B2, “Hepatitis B core protein allosteric modulators” (priority 2014, dated 2019).
